“And” between values parts separate entries of the source, which are not always exact repeats. Identical values can stand only once. Like-named read-outs stand apart in the source and are kept apart here.
How the values were obtained:
[1] = Aqueous solubility in pION's buffer; format: physicochemical
Description: Solubility was highest at the physiological of pH 7.4.

[2] = test system: IRE1/XBP1 (adaptive) UPR sub-pathway; experiment: UPR XBP1 assay (CHO-XBP1-luciferase reporter cell line); format: cell-based
Description: A high-throughput screen of the NIH Molecular Libraries Small Molecule Repository (MLSMR) of >350,000 compounds was carried out using complementary cell-based reporter assays using stably transfected CHO-K1 cells that specifically identify activators of the PERK/eIF2α/CHOP (apoptotic), or the IRE1/XBP1 (adaptive) UPR sub-pathways.
The liquid samples were first confirmed at a single-point concentration of 10 μM in the […]. Of the liquid samples, 674 compounds were confirmed to have at least 32% activity at a 10 μM assay concentration. The confirmed compounds were further tested in dose response in the UPR-CHOP primary assay to obtain EC50 values. In addition, confirmed compounds were also dosed out in the CHO-XBP1-luciferase reporter cell line to identify compounds that were selective for the CHOP apoptotic over the adaptive XBP1 pathway.
The high throughput screening effort and subsequent validation produced two chemotypes, which were further explored by SAR analysis for potency, selectivity, the absence of reactive functionality, synthetic accessibility, physiochemical properties, and hit rate in unrelated PUBCHEM assays. SAR testing of re-constituted powders encompassed dose response testing of compounds in two assays: UPR-CHOP and UPR-XBP1 assays.

Plasma stability, mouse = format: in vitro ADME
Description: Plasma stability is a measure of the stability of small molecules and peptides in plasma and is an important parameter, which strongly can influence the in vivo efficacy of a test compound. Drug candidates are exposed in plasma to enzymatic processes (proteinases, esterases), and they can undergo intramolecular rearrangement or bind irreversibly (covalently) to proteins. ML291 appeared to be moderately stable in human plasma (˜84% remaining), but less so in mouse plasma (˜52% remaining).

SKOV3 = experiment: Proliferation, SKOV3; format: cell-based; settings: Homo sapiens, SK-OV-3, 24 hours
Description: (§1) To determine whether ML291 could reduce the proliferation of malignant cells, a panel of OSCC (UMSCC23, A253, HN6, HN12, HN30, H460/T800) and ovarian cancer (RMG-1, TOV112D, A2780 and SKOV3) cell lines, were treated with increasing doses (0.15-20 μM) of ML291 for 24 hours (FIGS. 3A and 3B).

[3] = Toxicity towards Fa2N-4 immortalized human hepatocytes; format: cell-based; settings: read-out: Toxicity Towards Fa2N-4 Immortalized Human Hepatocytes LC50
[4] = test system: PERK-eIF2α-CHOP (apoptotic) arm of the Unfolded Protein Response pathway; experiment: UPR-CHOP primary assay (CHO-CHOP luciferase reporter); format: cell-based
Description: The purpose of this assay was to detect activators of the PERK-eIF2α-CHOP (apoptotic) arm of the Unfolded Protein Response pathway.
Cells were passaged twice a week. […] Once the cells had reached confluency, old medium was aspirated and the flasks were washed with 20 mL DPBS per T225 flask. Cells were left in DPBS for about 30 seconds. Subsequently, 6.5 mL 0.05% trypsin solution was added into the flask and the flask was rocked gently so that the solution covered the surface. The cells were allowed to detach by incubating at room temperature for about 4 minutes. The flask was washed with […] fresh growth media and the cell suspension was collected in a 50 mL sterile conical tube. The collected cells were centrifuged at 900 rpm for 5 minutes and re-suspended in 1 mL fresh growth media. An additional 19 mL of growth media was added and the tube was mixed gently. The cell suspension was filtered with a cell strainer and the cells were counted.
As above, cells were grown to confluency, washed, and detached with 5 mL trypsin solution for 4 minutes at room temperature. The flask was washed with 25 mL fresh growth media and the cell suspension was collected in a 50 mL sterile conical tube. The cells were centrifuged at 500 rpm for 10 minutes and re-suspended carefully in 1 mL fresh assay medium. An additional 19 mL of assay media was added the cells were mixed gently. The cell suspension was filtered with a cell strainer and the number of cells was counted. Cell density was adjusted to 1.0×10^5 cells/mL in medium.
On day 1, cell suspensions were prepared and 500 cells in 5 μL of assay media were plated in the wells of columns 1-48 of a 1536-well assay plate. The plates were centrifuged at 500 rpm for 1 minute and subsequently incubated at 37° C., 100% relative humidity, 5% CO2 for 16-18 hours.
[…] […] The plates were centrifuged at 1000 rpm for 1 minute and subsequently incubated at 37° C., 100% relative humidity, 5% CO2 for 6 hours.
Following the 6-hour incubation the plate was incubated for 10 minutes at room temperature and 3 μL of STEADY-GLO was added to each well. The plates were centrifuged at 2000 rpm for 2 minutes and subsequently incubated at room temperature for 10 minutes. Luminescence was measured with a luminometer.
The MLPCN library of approximately 330,000 compounds was tested in the UPR-CHOP primary screen utilizing a luciferase-based reporter expressed in a CHO cell line to identify activators of the CHOP apoptotic pathway. […]

[5] = test system: colorectal cell line DLD1(BAX−/−)(BAK−/−); experiment: ML291 exposure of DLD1(BAX−/−)(BAK−/−) versus wild-type; format: cell-based, human; settings: versus wild-type controls
[6] = Stability in PBS at room temperature; format: physicochemical; settings: 48 hours, 23° C.
Description: Stability was measured under two distinct conditions with ML291: at room temperature (23° C.) in PBS (no antioxidants or other protectants and DMSO concentration below 0.1%) and with 50% acetonitrile added to account for challenges with solubility of the compound in PBS alone. Stability was determined as the loss of compound with time over a 48 hour period with a minimum of 6 time points.

A2780 (ovarian) = experiment: Proliferation, A2780; format: cell-based; settings: Homo sapiens, 24 hours
Description: as §1

[7] = Hepatic microsome stability, human; format: in vitro ADME
Description: The microsomal stability assay is commonly used to rank compounds according to their metabolic stability. This assay addresses the pharmacologic question of how long the parent compound will remain circulating in plasma within the body.

SMILES: O=C(Nc1ccc(S(=O)(=O)N2CCC(Cl)CC2)cc1)c1ccc([N+](=O)[O-])o1 [ML291, N-(4-((4-chloropiperidin-1-yl)sulfonyl)phenyl)-5-nitrofuran-2-carboxamide]
- solubility over its EC50 ([1]; EC50 762 nM): 11-13 fold
- solubility ([1]; aqueous buffer (pION's buffer), aqueous buffer, pH range of 5.2-7.4, read-out: solubility in aqueous buffers): 8.7 µM to 9.7 µM and 3.6 µg/mL to 4 µg/mL
- Aqueous Solubility in pION's buffer ([1]; pH 5.0): 3.6 μg/mL and 8.7 μM
- Aqueous Solubility in pION's buffer ([1]; pH 6.2): 3.8 μg/mL and 9.2 μM
- Aqueous Solubility in pION's buffer ([1]; pH 7.4): 4.0 μg/mL and 9.7 μM
- EC50 ([2]; Table 1, mean of replicates, AID602416, read-out: UPR XBP1 Assay Potency EC50): > 80000 nM
- EC50 ([2]; Table 9, average of four runs, F12 HAMs, 10% hi-FBS, read-out: EC50 UPR XBP1 Assay): > 80000 nM
- EC50 ([2]; read-out: XBP1 EC50): > 80000 nM
- remaining in mouse plasma (Plasma stability, mouse): ~52%
- Plasma Stability (% Remaining at 3 hours @ 37° C.) (Plasma stability, mouse; Mouse): 52.31%
- IC50 (SKOV3): 1590 nM
- CC50 [3]: 11400 nM
- selectivity (XBP1 over CHOP) [4]: > 108.1 fold
- EC50 ([4]; CHO-K1, text, read-out: EC50 in the CHO-K1 cell reporter assays (CHOP)): 762 nM
- EC50 ([4]; Cricetulus griseus, Table 1, mean of replicates, AID602434, read-out: UPR CHOP Assay Potency EC50): 740 nM
- EC50 ([4]; Cricetulus griseus, read-out: CHOP EC50): 740 nM
- Selectivity (XBP1/CHOP) x-fold ([4]; Table 1): >108.1 x-fold
- EC50 ([4]; Table 9, average of four runs, F12 HAMs, 10% hi-FBS, read-out: EC50 UPR CHOP Assay): 780 nM
- EC50 ([4]; read-out: EC50 in the CHO-K1 cell reporter assays (CHOP)): 760 nM
- ability of BAX/BAK-deleted cells to withstand exposure [5]: significantly more able to withstand ML291 exposure than wild-type controls
- percent remaining compound in PBS with 50% acetonitrile [6]: 100%
- percent remaining compound in PBS ([6]; no additives): 11.44%
- IC50 (A2780 (ovarian)): 2160 nM
- Hepatic Microsome Stability (% Remaining after 1 hour @ 37° C.) ([7]; Human): 0.49%
- metabolism in human liver homogenates ([7]; within 1 hour): almost completely metabolized
